Results: publication PMC6128908, “Potent PDZ-Domain PICK1 Inhibitors that Modulate Amyloid Beta-Mediated Synaptic Dysfunction” (Scientific Reports, 2018)
pIC50: −log10 of the molar value. Values joined by “and” are separate entries in the source; they are usually repeats but may differ in a detail not shown here. Equal values may be shown once. Read-outs that look alike come from different tables or passages of the source.

Legend:
[1] = biological target: PICK1 (Homo sapiens, UniProt Q9NRD5); assay: PICK1 competition (displacement) assay with tracer BIO424; settings: for fold more potent than the unsubstituted quinoline: relative to 1u;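 as to all read-outs here: in vitro displacement assay with baculovirus-expressed, truncated dimeric PICK1 missing its final 59 residues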
Sequence of PICK1 (Q9NRD5 1-356): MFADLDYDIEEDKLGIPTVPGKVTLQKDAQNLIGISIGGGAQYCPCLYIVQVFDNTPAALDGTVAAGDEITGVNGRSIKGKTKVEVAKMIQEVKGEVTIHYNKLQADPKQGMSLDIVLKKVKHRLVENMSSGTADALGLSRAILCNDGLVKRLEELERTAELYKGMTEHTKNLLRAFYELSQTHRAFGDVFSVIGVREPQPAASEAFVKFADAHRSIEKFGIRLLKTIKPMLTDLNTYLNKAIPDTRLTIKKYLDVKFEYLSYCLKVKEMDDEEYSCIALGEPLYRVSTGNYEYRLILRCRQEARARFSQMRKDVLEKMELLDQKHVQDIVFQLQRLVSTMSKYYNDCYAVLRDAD
Procedure: (§1) Fluorescence polarization (FP) and competition binding assays were used to determine PDZ binding affinities and selectivity of compounds as described in Alfonso et al.[20]. Briefly, a fixed concentration (5 nM) of Fluorescein isothiocyanate-labeled peptides comprising the C-terminal amino acids of GluA2 (875–883) and N-methyl-D-aspartate receptor subunit 2B (1474–1482) was used. Binding FP assays were carried out using increasing concentrations of recombinant full-length PICK1, postsynaptic density 95 (PSD95) PDZ 1–2, or Shank3 PDZ, and normalized by subtracting the tracer-only background.
Two recombinant PICK1 constructs were used in this study. […] A truncated, dimeric form of PICK1 lacking the last 59 residues was expressed in baculovirus and purified to homogeneity for use in the in vitro displacement assay. In general, both proteins were purified by Nickel chromatograpy followed by size exclusion chromatography.

[2] = tested on: GRIP; assay: PDZ selectivity counter-screen against GRIP; type: binding; settings: data not shown
From the text: Having addressed the potency issue for this tool, we then looked into how selective this compound series was for PICK1 over other closely related PDZ domains. Since the ligand GluA2 recognizes both PICK1 and GRIP we were unsure of whether we could get a selective compound. GRIP (6 PDZ domain-containing protein) is the most closely related PDZ domain to PICK1. PSD95 ([…]) and Shank (a single PDZ domain scaffolding molecule), are also important to counter-screen as they are also located in neurons and could be considered a liability if they were inhibited (Supplemental Fig. 3). […] The selectivity observed for compound 1o was also observed for compound 1z[20].

[3] = biological target: T1, Shank3 PDZ (Homo sapiens, UniProt Q9BYB0); assay: Fluorescence polarization selectivity assay, FITC-labeled GKAP peptide; type: binding; settings: Supplemental Fig. 3D
T1 construct: Human Shank3 PDZ domain (residues 663–757); made in house; host or cells: E. coli
T1 sequence (Q9BYB0 646-740 limits assumed): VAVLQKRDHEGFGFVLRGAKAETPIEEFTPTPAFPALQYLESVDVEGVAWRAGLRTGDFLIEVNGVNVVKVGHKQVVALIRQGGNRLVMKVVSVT
Procedure: as §1

[4] = tested on: GRIP; settings: cited from earlier work
[5] = tested on: surface GluA2 in cultured hippocampal neurons; assay: Surface GluA2 immunostaining in cultured hippocampal neurons; type: cell-based, mouse
Procedure: Experiments were conducted in accordance with and received approval from the Institutional Animal Care and Use Committees at Biogen Inc. The experiments were carried out in accordance with guidelines laid down by the NIH regarding the care and use of animals for experimental procedures. Primary hippocampal cultures were prepared from embryonic day 18 rodent brains as described previously. Cells were plated on coverslips coated with poly-D-lysine (30 µg/mL) and laminin (2 µg/mL) at a density of 70, 000 cells per well in 12-well plates. […] Embryonic neuronal cultures were prepared from a minimum of three independent pregnant mice on separate days in all of the studies described, and at least 13 neurons were analyzed for each experimental group. […]
Confocal images of immunostained neurons were obtained using a confocal microscope objective (LSM 710, Zeiss) with sequential acquisition settings at a resolution of 1024 × 1024 pixels. […] All analysis and quantifications were carried out using MetaMorph image analysis software (Universal Imaging Corporation). Dendrites from experimental groups were randomly selected and carefully traced, and the average intensity of fluorescence staining was determined for the traced regions. Intensity measurements are expressed in arbitrary units of fluorescence per square area. Acquisition and quantification of images was blinded. […]

[6] = PK properties in rats; type: in vivo
Procedure: We next investigated the PK properties of compound 1z in rats to explore if it represented an appropriate in vivo tool compound. […] Several other compounds within this series were tested for brain penetration and were likewise unable to cross the blood brain barrier.

[7] = tested on: AMPA receptor-dependent calcium influx in hippocampal neurons; assay: Calcium mobilization assay (FLIPR), Aβ42-treated neurons; type: cell-based, mouse; settings: neurons treated with Aβ42 for 24 hours, 40 μM s-AMPA stimulation
Procedure: Synthetic Aβ42 hexafluoroisopropanol peptide was prepared to the stock concentration of 200 μM by adding 10 μL dimethylsulfoxide to 100 μg of Aβ42 hexafluoroisopropanol pellet and incubating for 30 min at room temperature with occasional mixing. […] The solution was kept at room temperature for 2 h and then used for experiments.
Mouse hippocampal neurons from wild type E16–18 animals were isolated and cultured for 13 days in vitro in Neurobasal media with B27 Supplement, Glutamax, and penicillin/streptomycin (Invitrogen). Neuron cultures were then treated with Aβ in the absence or presence of PICK1 inhibitorsfor 24 hours. Calcium influx was measured using the FLIPR Calcium 4 Assay (Molecular Devices). The cells were loaded with dye for 1 hour at 37 °C and then stimulated with 40 μM s-AMPA (Sigma). Fluorescent recordings were taken using the FLIPR Tetra (Molecular Devices). Baseline measurements before AMPA stimulation were recorded and fluorescent intensity measurements were taken for roughly 3 minutes during and after stimulation. Calcium influx was calculated as the area under the curve and plotted using PRISM GraphPad software.

[8] = biological target: T2, PSD95 PDZ 1-2 (Homo sapiens, UniProt P78352); settings: cited from earlier work
T2 construct: domains 1–2 in tandem; aminoacids 61–249; 8XHis-TEV; made in house; host or cells: E. coli
T2 sequence (P78352 61-249): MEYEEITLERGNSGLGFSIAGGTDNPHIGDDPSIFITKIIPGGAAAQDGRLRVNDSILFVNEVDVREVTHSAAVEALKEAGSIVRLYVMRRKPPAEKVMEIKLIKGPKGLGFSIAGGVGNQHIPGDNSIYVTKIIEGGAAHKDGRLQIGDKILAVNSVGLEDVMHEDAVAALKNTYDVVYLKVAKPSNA

[9] = tested on: CA1 pyramidal neurons; assay: Long term depression, whole cell recording in hippocampal slices; type: cell-based; settings: 4 µM internally, low frequency stimulation, wild-type mice hippocampal slices
Procedure: Adult mice aged 8 to 9 weeks were decapitated using a guillotine and sliced at the first cervical vertebra. A cut was made through the skin in the middle of the scalp and the skull plate. The skull plate was separated and the brain was removed, and immediately submerged in iced-cold oxygenated Dissection Buffer (211 mM Sucrose, 2.6 mM KCl, 26 mM NaHCO3, 1.25 mM NaH2PO4, 5 mM MgCl2, 0.5 mM CaCl2, and 10 mM glucose) for 2 minutes. The brain was placed on an ice-cold cutting station and the brain cut along the longitudinal cerebral fissure to separate the two hemispheres. Hemispheres were placed in iced-cold oxygenated Dissection Buffer andand cerebellum was pulled away to reveal the hippocampus. The two hemispheres were arranged so that the hippocampi faced each other like two columns and the whole structure was glued onto a mounting plate, and slices were sectioned at 400 µm thickness and transferred to a holding chamber with oxygenated Recovery Buffer (124 mM NaCl, 3 mM KCl, 26 mM NaHCO3, 1.25 mM NaH2PO4, 2 mM MgSO4, 4 mM CaCl2, 10 mM glucose, and 1 mM kynurenic acid). Slices were allowed to recover for 1–1.5 h at room temperature before electrophysiology experiments. Whole-Cell current-clamp measurements on hippocampal CA1 pyramidal neurons were carried out at 32 to 33 °C. The cells were held at −60 mV potential and schaffer collateral fibers were stimulated. […]

[10] = Solubility comparison; type: physicochemical; settings: compared with compound 1z
[11] = rat, in vivo, 5 mg/kg, suspension (CMC/Tween)

SMILES | pIC50 ([1]; IC50, BIO424 as tracer) | further results
CCc1cc(N2CCC(C(=O)N[C@@H](CC3CC3)C(=O)O)(c3ccc(C(F)(F)F)cc3)CC2)c2ncccc2c1 [1w] | 6.57 | 
O=C(O)[C@H](CC1CC1)NC(=O)C1(c2ccc(C(F)(F)F)cc2)CCN(c2cc(Br)cc3cccnc23)CC1 [1aa] | 7.12 | 
CC(C)(C)OC(=O)N1CCC[C@H]1C(=O)N1CCC(C(=O)N[C@H](C(=O)O)C2CCCC2)(c2ccc(Br)cc2)CC1 [1l] | 6.09 | 
CC(C)c1cc(N2CCC(C(=O)N[C@@H](CC3CC3)C(=O)O)(c3ccc(C(F)(F)F)cc3)CC2)c2ncccc2c1 [1x] | 6.29 | 
CC(C)(C)OC(=O)N1CCC[C@H]1C(=O)N1CCC(C(=O)N[C@@H](CC2CC2)C(=O)O)(c2ccc(C(F)(F)F)cc2)CC1 [1n] |  | pIC50 ([1]; IC50 (potency)): 6.89
O=C(O)[C@H](CC1CC1)NC(=O)C1(c2ccc(Br)cc2)CCN(Cc2ccccc2C(F)(F)F)CC1 [1o] | 6.24 | selectivity for PICK1 over GRIP [2]: selectivity; selectivity for PICK1 over Shank PDZ domain [3]: selectivity
CC(C)(C)OC(=O)N1CCC[C@H]1C(=O)N1CCC(C(=O)NC(C)(C)C(=O)O)(c2ccc(Br)cc2)CC1 [1i] | < 3.76 | 
O=C(O)[C@H](CC1CC1)NC(=O)C1(c2ccc(C(F)(F)F)cc2)CCN(c2cccc3ccccc23)CC1 [1t] | 5.07 | 
CC(C)[C@H](NC(=O)C1(N2CCOCC2)CCN(C(=O)[C@@H]2CCCN2C(=O)OC(C)(C)C)CC1)C(=O)O [1c] | ~3.76 | 
O=C(O)[C@H](CC1CC1)NC(=O)C1(c2ccc(C(F)(F)F)cc2)CCN(c2cc(C(F)(F)F)cc3cccnc23)CC1 [1ab] | 6.98 | 
O=C(O)[C@H](CC1CC1)NC(=O)C1(c2ccc(C(F)(F)F)cc2)CCN(c2cc(OC(F)(F)F)cc3cccnc23)CC1 [1ad] | 5.64 | 
O=C(O)[C@H](CC1CC1)NC(=O)C1(c2ccc(Br)cc2)CCN(Cc2cccc(C(F)(F)F)c2)CC1 [1p] | 5.59 | 
O=C(O)[C@H](CC1CC1)NC(=O)C1(c2ccc(C(F)(F)F)cc2)CCN(c2cccc3cccnc23)CC1 [1u] | 5.34 | 
O=C(O)[C@H](CC1CC1)NC(=O)C1(c2ccc(C(F)(F)F)cc2)CCN(c2ccccc2)CC1 [1s] | 5.69 | 
COc1cc(N2CCC(C(=O)N[C@@H](CC3CC3)C(=O)O)(c3ccc(C(F)(F)F)cc3)CC2)c2ncccc2c1 [1ac] | 6.25 | 
CC(C)(C)OC(=O)N1CCC[C@H]1C(=O)N1CCC(C(=O)N[C@@H](CC2CC2)C(=O)O)(c2ccc(Br)cc2)CC1 [1m] | 6.14 | 
Cc1cc(N2CCC(C(=O)N[C@@H](CC3CC3)C(=O)O)(c3ccc(C(F)(F)F)cc3)CC2)c2ncccc2c1 [1v] | 6.46 | fold more potent than the unsubstituted quinoline [1]: 10 fold
O=C(O)[C@H](CC1CC1)NC(=O)C1(c2ccc(C(F)(F)F)cc2)CCN(c2cc(F)cc3cccnc23)CC1 [1y] | 6.20 | 
CC(C)(C)OC(=O)N1CCC[C@H]1C(=O)N1CCC(C(=O)N[C@@H](Cc2c[nH]cn2)C(=O)O)(c2ccc(Br)cc2)CC1 [1k] | < 3.76 | 
CC(C)[C@H](NC(=O)C1(c2ccc(Br)cc2)CCN(C(=O)[C@@H]2CCCN2C(=O)OC(C)(C)C)CC1)C(=O)O [1e] | 5.37 | 
CC(C)(C)OC(=O)N1CCC[C@H]1C(=O)N1CCC(C(=O)N[C@@H](Cc2c[nH]c3ccccc23)C(=O)O)(c2ccc(Br)cc2)CC1 [1j] | < 3.76 | 
CC(C)[C@H](NC(=O)C1(c2ccccc2)CCN(C(=O)[C@@H]2CCCN2C(=O)OC(C)(C)C)CC1)C(=O)O [1a] | 4.72 | 
CC(C)(C)OC(=O)N1CCC[C@H]1C(=O)N1CCC(C(=O)NCC(=O)O)(c2ccc(Br)cc2)CC1 [1g] | < 3.76 | 
O=C(O)[C@H](CC1CC1)NC(=O)C1(c2ccc(Br)cc2)CCN(Cc2ccc(C(F)(F)F)cc2)CC1 [1q] | 5.23 | 
CC(C)[C@H](NC(=O)C1(c2ccc(C(F)(F)F)cc2)CCN(C(=O)[C@@H]2CCCN2C(=O)OC(C)(C)C)CC1)C(=O)O [1f] | 5.81 and 5.80 | 
CC(C)[C@H](NC(=O)C1(Cc2ccccc2)CCN(C(=O)[C@@H]2CCCN2C(=O)OC(C)(C)C)CC1)C(=O)O [1d] | 4.69 | 
O=C(O)[C@H](CC1CC1)NC(=O)C1(c2ccc(C(F)(F)F)cc2)CCN(c2cc(Cl)cc3cccnc23)CC1 [1z] |  | selectivity for PICK1 over GRIP [4]: selectivity; pIC50 ([1]; IC50 (potency)): 7.16; fold more potent than the unsubstituted quinoline [1]: 67 fold; surface GluA2 levels relative to untreated neurons ([5]; 3 μM, 24 hours, cultured hippocampal neurons): increased; total amount of GluA2 in the cytoplasm and on the cell surface ([5]; inhibitor treatment, data not shown): unchanged; exposure in the brain (brain penetration) [6]: no exposure in the brain; AUC [6, 11]: 2920 ng·h/mL; Cmax [6, 11]: 1360 ng/mL; effect on Aβ42-induced increase in intracellular calcium concentration [7]: attenuated; selectivity for PICK1 over PSD95 [8]: selectivity
C[C@H](NC(=O)C1(c2ccc(Br)cc2)CCN(C(=O)[C@@H]2CCCN2C(=O)OC(C)(C)C)CC1)C(=O)O [1h] | 4.92 | 
CC(c1ccccc1C(F)(F)F)N1CCC(C(=O)N[C@@H](CC2CC2)C(=O)O)(c2ccc(Br)cc2)CC1 (some centres unmarked) [1r] | 5.91 | induction of long term depression (LTD) [9]: LTD was not induced; solubility [10]: better than compound 1z
CC(C)[C@H](NC(=O)C1(C2CCCCC2)CCN(C(=O)[C@@H]2CCCN2C(=O)OC(C)(C)C)CC1)C(=O)O [1b] | 4.76 | 
